In test [1] the test system is A549 lung carcinoma cells. Put plainly: cell death assay (trypan blue exclusion, ATP levels). The conditions noted are these: for effect of p38 inhibitor on death in response to HAMLET: SB202190 20 μM or BIRB796 10 μM, HAMLET 3 h. In kind it is cell-based, human. The procedure:
(§1) Cells were detached from cell culture flasks with versen (0.2 g EDTA in 200 ml H2O and 800 ml PBS), washed with PBS and resuspended in serum-free RPMI-1640. HAMLET dissolved in PBS was incubated with cells (0.5×10^6/ml for A549, A498 and HeLa cells; 1×10^6/ml for Jurkat) at 37° C. FCS was added after 1 hour. Cell death was quantified by trypan blue exclusion (Chroma Gesellschaft Schmid & Co) or by measuring ATP levels (ATPlite Kit, PerkinElmer, Infinite 200, Tecan). Light images were captured using the HOLOMONITOR™ M2 digital holographic microscope (Phase Holographic Imaging AB, Lund, Sweden).
(§2) For studies with inhibitors, cells were pretreated for 30 minutes. Inhibitors used were Gadolinium chloride (GdCl3, 100 μM), Barium chloride (BaCl2, 1 mM), Ruthenium red (30 μM), tetrandrine (10 μM) and amiloride (1 mM), all from Sigma Aldrich. For p38 inhibition, SB202190 (20 μM, Sigma Aldrich) or BIRB796 (10 μM, Axon Medchem) dissolved in DMSO was used. The wells were washed twice with PBS and new medium with inhibitor was added. For RNA interference, FlexiTube siRNA Premixes against MAPK11 (SI00606053), MAPK14 (SI00300769) and All Star Negative Control siRNA (SI03650318) from Qiagen was used. A549 forward was transfected using 25 nM final siRNA concentration in 24-well plate. After 48 hours, knockdown was examined by Western blot (anti-p38, 1:1000, Cell Signaling) and RT-PCR (MAPK14, QT00079345, QIAGEN).
(§3) To examine if functional ion channels are important for the tumoricidal activity of HAMLET, A549 lung carcinoma cells in suspension were pretreated with the channel inhibitors for 30 minutes and exposed to increasing concentrations of HAMLET for three hours.
A549 cells were seeded to a density of 0.8-1.0×10^6 cells/well in RPMI without FCS. Different volumes of HAMLET/oleate and oleic acid solutions were added. The cells were incubated for 1 hour at 37° C. 5% CO2 for 1 hour before 50 μl of FCS (5% final concentration) were added to the wells. The cells were then further incubated for additional 2 hours before the viability were determined by trypan blue exclusion and ATP measurements.

Test [2] deals with kidney carcinoma (A498) cells. Put plainly: cell death assay with p38 inhibitors. The format is cell-based, human. The conditions noted are these: SB202190 20 μM or BIRB796 10 μM; HAMLET 3 h. As to the method:
FIG. 4. p38 inhibition rescues carcinoma and lymphoma cells from death and morphological change in response to HAMLET. (A, B) p38 inhibition (SB202190, 20 μM) rescued carcinoma (A549 and A498) and T-cell lymphoma (Jurkat) cells from death in response to HAMLET (7-49 μM, 3 h). Viability was quantified by Trypan blue exclusion (A) or as ATP levels (B). Data are means+SEMs for 3 independent experiments. (C) Real-time images of cell morphology after HAMLET exposure, showing that p38 inhibition prevents morphological changes in carcinoma cells (nuclear condensation, rounding up and blebbing). (D-E) A549 lung carcinoma cells were transfected using siRNA against p38α/MAPK14 and/or p38β/MAPK11 or non-targeting siRNA. Relative MAPK11 and MAPK14 mRNA levels are shown (MAPK/GAPDH, in % of non-transfected cells) as means+SEMs for 4 independent experiments. […] (F) The cytotoxic effect of HAMLET was quantified 48 hours after transfection as reduction in ATP levels. […]
FIG. 12. […] Viability was quantified by ATP levels.
Cells were detached from cell culture flasks with versen (0.2 g EDTA in 200 ml H2O and 800 ml PBS), washed with PBS and resuspended in serum-free RPMI-1640. […] Cell death was quantified by trypan blue exclusion (Chroma Gesellschaft Schmid & Co) or by measuring ATP levels (ATPlite Kit, PerkinElmer, Infinite 200, Tecan). […]

In test [3] the test system is lung carcinoma, kidney carcinoma and lymphoma cells. Put plainly: HAMLET-induced change in cell morphology (light microscopy, real-time imaging). The format is cell-based. The procedure:
as §1
For live cell imaging, cells were pre-treated with SB202190 for 30 minutes, nuclei were stained with Hoechst 33342 (Invitrogen) and Alexa-Fluor 568-labeled HAMLET (10% labeled HAMLET, Molecular Probes) was added in serum-free medium. FCS was added after 1 hour. Fluorescence was detected with pinhole settings corresponding to 1 airy unit. The cells were kept at 37° C., 5% CO2 and examined unfixed by LSM510 DUO confocal microscopy (Carl Zeiss).
To examine if the HAMLET-induced change in carcinoma cell morphology was modified by the channel inhibitors, lung carcinoma, kidney carcinoma and lymphoma cells were exposed to HAMLET in the presence or absence of ion channel inhibitors and examined by light microscopy (FIG. 2C).
To determine if p38 signaling was involved in cell death, we inhibited p38α and p38β in lung and kidney carcinoma and Jurkat lymphoma cells with two small-molecule p38 inhibitors: SB202190, a highly specific pyridinyl-imidazole inhibitor; and BIRB796, a diaryl urea compound, which bears little structural similarity to SB202190 (Fabian et al., 2005, Nature Biotechnology 23: 329-336), ([…] and FIG. 12B). […] The effect of p38 inhibition on cell death was also observed by real-time confocal imaging of lung carcinoma cells exposed to fluorescently labeled HAMLET.

Test [4] has as its system Human renal tubular epithelial cells (HRTEC). The test is described as follows: Ca^2+ and K^+ levels in healthy, differentiated cells in primary culture. The format is cell-based. The procedure:
Human renal tubular epithelial cells (HRTEC) were preincubated with Fluo-4 as described, exposed to HAMLET (35 μM) and examined by real time confocal microscopy.
(§4) To further characterize ion channel activation by HAMLET, carcinoma cells were pretreated with defined channel blockers. Amiloride is a sodium channel inhibitor with effects on mechanosensitive channels, barium chloride (BaCl2) is a general K^+ channel inhibitor, gadolinium chloride (GdCl3) inhibits mechanosensitive channels, Ruthenium red is a general Ca^2+ inhibitor and tetrandrine inhibits large conductance, Ca^2+ activated K^+ channels. The carcinoma cells were preincubated with Fluo-4 as described above, pretreated with each of the channel inhibitors for 30 minutes, exposed to HAMLET (35 μM) and examined by real time confocal imaging. Furthermore, cells treated with EGTA were compared to cells with intact extracellular Ca^2+ levels, to distinguish the early peak from the subsequent influx of Ca^2+ (FIG. 1B, Table in FIG. 8).

Test [5] has as its system lung carcinoma cells (A549). Put plainly: intracellular Ca^2+, Fluo-4, real time confocal microscopy. The format is cell-based, human. As to the method:
To examine if HAMLET modulates ion channel activity in tumor cells, we first quantified changes in intracellular Ca^2+ and K^+. Lung carcinoma cells were first preloaded with the Fluo-4 Ca^2+ fluorophore Fluo-, exposed to HAMLET (35 μM) and examined by real time confocal microscopy for changes in fluorescence intensity (FIG. 1A). The Ca^2+ ionophore A23187, which acts as a Ca^2+ shuttle across cell membranes, was used as a positive control (Abbott et al., 1979, Antimicrobial Agents and Chemotherapy 16, 808-812).
(§5) To distinguish Ca^2+ mobilization from intracellular stores from the influx of extracellular Ca^2+, EGTA was then added to the cell medium. […] K^+ fluxes across tumor cell membranes were subsequently quantified under the same experimental conditions, using the fluorophore FLUXOR™, which fluoresces after thallium has entered cells through K^+ channels.
as §4

In test [6] the test system is potassium channels in A549, lung carcinoma cell lines. Put plainly: FLUXOR potassium (K^+) channel assay, Thallium (Tl^+) indicator. To be noted: carcinoma cells, 30 minutes pretreatment, HAMLET 35 μM. In kind it is cell-based, human. As to the method:
The FLUXOR™ potassium (K^+) channel assay was performed on the TECAN infinite F200 (Tecan Group, Switzerland), according to the manufacturer's instructions (Invitrogen). Briefly, this involved FLUXOR™ loading buffer (Hank's Balanced Saline Solution, (HBSS) buffered with 20 mM HEPES and pH adjusted to 7.4 with NaOH. POWERLOAD™ concentrate and water-soluble Probenecid were used respectively to enhance the dye solubility and retention, respectively. Media were removed from the cell plates manually, and 80 μL of loading buffer containing the FLUXOR™ dye mix was applied to each well. Once inside the cell, the nonfluorescent AM ester form of the FLUXOR™ dye is cleaved by endogenous esterases into a thallium-sensitive indicator. The dye was loaded for 60 minutes at room temperature and then removed with the supernatant. After washing with dye-free PBS buffer, a final volume of 80 μL assay buffer containing water-soluble probenecid was added. Cells received one of the following channel inhibitors: 3.3 μL per well of 30 mM amiloride, 3.0 μL of 32 mM BaCl2, 1.8 μL of 5.4 mM gadolinium, 3 μL 3.2 mM tetrandrine and 2.3 μL of 2.6 mM ruthenium red, and were then incubated at room temperature (23-25° C.) for 30 minutes to allow equilibration of the test compounds. Prior to injection, stimulation buffer was prepared from the chloride-free buffer and thallium reagents provided in the kit as well as HAMLET, to achieve a final added concentrations of 2 mM free Tl+ and 35 μM HAMLET after 1:5 dilution upon injection of the stimulus buffer onto cells that had been loaded with FLUXOR™ dye.
as §5
Potassium channel activity was therefore measured in A549, lung carcinoma cell lines using an indicator, which emits fluorescence signal upon entering the cells via opened potassium channels, Thallium (Tl^+) indicator (FIG. 18).

The subject of test [7] is p38, HSP27, ERK1/2 in kidney and lung carcinoma cells. Put plainly: MAPK phosphorylation (phospho-MAPK antibody arrays, Western blot). The format is cell-based, human. An excerpt: Equal volumes of lysates were separated by SDS-PAGE on 4-12% Bis-Tris gels (Invitrogen) and blotted onto PVDF membranes. For other Western blots, 200,000 cells were allowed to adhere overnight in a 6-well plate. After HAMLET treatment the cells were washed with PBS and lysed in M-PER lysis buffer (Pierce) containing Complete protease inhibitor cocktail and PhosSTOP phosphatase inhibitor cocktail (both from Roche). The detached cells were collected by centrifugation. The lysates were cleared by centrifugation and protein concentrations were measured using the DC Protein Assay (Bio-Rad Laboratories, Hercules, Calif.). Equal amounts of protein were separated by SDS-PAGE on 4-12% Bis-Tris gels (Invitrogen) and blotted onto PVDF membranes (GE Healthcare). Membranes were saturated with BSA (GAPDH) or nonfat dry milk (phospho-p38, p38, phospho-ERK1/2, ERK1/2) and incubated with anti-p38, anti-phospho-p38, anti-ERK1/2, anti-phospho-(Thr202/Tyr204)-p44/42 (all 1:500-1000, Cell Signaling Technology), anti-ATF6 (1:1000, IMG-273, Imgenex), anti-phospho-eIF2α (Ser51), (1:500, Cell Signaling Technology) or anti-GAPDH (1:3000-5000, Novus Biologicals) antibodies followed by horseradish peroxidase-conjugated anti-rabbit (1:1000, DakoCytomation, Glostrup, Denmark) or anti-mouse (1:40000-50000, Novus Biologicals) antibodies for staining. Bound antibodies were detected with ECL Plus Western Blotting Reagent (GE Healthcare, Little Chalfont, UK) and GelDoc equipment (Bio-Rad Laboratories, Hercules, Calif.). If required, membranes were stripped with Restore Western Blot Stripping Buffer (Pierce, Rockford, Ill.), blocked and reprobed with new antibodies. MAP kinase phosphorylation was analyzed on a Human Phospho-MAPK array (Proteome Profiler Array, R&D Systems) as per the manufacturer's instruction. Band and spot intensities were quantified using ImageJ (Abramoff et al., July 2004, Biophotonics International). Cytokine quantification (IL6, IL8, TNFα) was performed on an […] 1000 immunoassay system (Siemens Diagnostics).
P38 MAPKs are activated by dual phosphorylation on conserved threonine and tyrosine residues by MKK3/6 and when phosphorylated, a wide variety of effector proteins, including MAPKAPK2 kinases, HSP27 chaperones and ATF2 and CHOP transcription factors become active (Cuenda et al., 2007, Biochimica et Biophysica Acta 1773: 1358-1375).
A general note: A western blot detects proteins with antibodies after separation by electrophoresis.

In test [8] the test system is lymphoma cells (Jurkat cells). The test is described as follows: cell death assay with inhibitors. The format is cell-based. The conditions noted are these: SB202190 20 μM; HAMLET 7-49 μM, 3 h. As to the method: GAPDH was used as a loading control.
as §1, §2, §3

The values that follow come from US9487561B2, “Biologically active complex and its preparation” (HAMLET PHARMA AB, priority 2010, dated 2016).

Entries after “also recorded” stand apart in the source; their conditions may differ.

In the case of `Cc1ccc(-n2nc(C(C)(C)C)cc2NC(=O)Nc2ccc(OCCN3CCOCC3)c3ccccc23)cc1` [BIRB796], the “effect of p38 inhibitor on death in response to HAMLET” value in test [1] and in test [2] was “rescued” throughout. In addition, the “effect of p38 inhibitor on morphological changes associated with HAMLET induced cell death” value in test [3] (BIRB796 10 μM, HAMLET 35 μM, 3 h) is reported as “diminishes the morphological changes”.
With `[Cl][Gd]([Cl])[Cl]` [GdCl3, Gadolinium chloride, reference compound], the “effect of channel blocker on response to HAMLET in healthy cells” value in test [4] is on record as “no effect”. Further, in test [5] (30 minutes pretreatment, HAMLET 35 μM), the “effect of channel blocker on first, EGTA insensitive Ca^2+ peak in response to HAMLET” value is “inhibited”. Besides, in test [1] (30 minutes pretreatment, HAMLET three hours), the “effect of channel inhibitor on HAMLET-induced cell death” value was “no effect on viability”. In addition, the “effect of ion channel inhibitor on HAMLET-induced change in cell morphology” value in test [3] (light microscopy) is given as “did not prevent the morphological changes”. For the same compound, in test [6], the “effect of channel blocker on K^+ flux in response to HAMLET” value was “strongly inhibited”.
For `Oc1ccc(-c2nc(-c3ccncc3)c(-c3ccc(F)cc3)[nH]2)cc1` [SB202190], the “effect of p38 inhibitor on p38 and HSP27 phosphorylation upon HAMLET treatment” value in test [7] is “marked decrease in p38 and HSP27 phosphorylation”. Besides, the “effect of p38 inhibitor on death in response to HAMLET” value in test [1] is on record as “rescued; also recorded: clearly attenuated”; in test [8], “rescued”; in test [2] it was “rescued”.
As for `CNc1ccc2oc(C[C@H]3O[C@@]4(CC[C@H]3C)O[C@H]([C@H](C)C(=O)c3ccc[nH]3)[C@H](C)C[C@H]4C)nc2c1C(=O)O` [ionophore, reference compound], the “Ca^2+ response in HRTECs” value in test [4] (HAMLET 35 μM) was “rapid and sustained increase in Ca^2+”. Further, the “cells involved in Ca^2+ response” value in test [5] is “all cells”. Besides, the “intracellular Ca^2+ response” value in test [5] (HAMLET 35 μM) was “more drastic and sustained increase in intracellular Ca^2+ levels than HAMLET”.
